Measured values as given in US8022225B2, “Triazole derivative” (Taisho Pharmaceutical Co., Ltd, priority 2004, dated 2011).

What was measured:
human Edg-1(S1P1) [1] = molecular target: T1, human Edg-1(S1P1) (Homo sapiens, UniProt P21453); experiment: Membrane system binding test: inhibition of [33P]-S1P binding to the membrane fraction of Edg-1(S1P1) gene transferred HEK-293 cells; settings: 10 μM compound; [33P]-S1P 0.1 nM; membrane fraction of Edg-1(S1P1) gene transferred HEK-293 cells; read-out: Membrane system binding test % inhibition (10 μM)
T1 construct: expressed in transfected cells; host or cells: HEK-293
Procedure, shortened: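 Membranes from HEK-293 cells transfected with Edg-1(S1P1) incubated 1 h at 30 °C with 0.1 nM [^33P]-S1P and compound at 10^−5 M (0.1% DMSO), pH 7.4 buffer with fatty acid-free BSA. Filter-bound radioactivity counted; inhibition rate calculated against no-compound binding, with untransfected-cell background subtracted.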

human Edg-1(S1P1) [2] = molecular target: T1, human Edg-1(S1P1); experiment: Cell system binding test: inhibition of [3H]-S1P binding to Edg-1(S1P1) gene transferred HEK-293 cells; settings: 10 μM compound, [3H]-S1P 10 nM, read-out: Cell system binding test % inhibition (10 μM)

T1 sequence (P21453 whole entry): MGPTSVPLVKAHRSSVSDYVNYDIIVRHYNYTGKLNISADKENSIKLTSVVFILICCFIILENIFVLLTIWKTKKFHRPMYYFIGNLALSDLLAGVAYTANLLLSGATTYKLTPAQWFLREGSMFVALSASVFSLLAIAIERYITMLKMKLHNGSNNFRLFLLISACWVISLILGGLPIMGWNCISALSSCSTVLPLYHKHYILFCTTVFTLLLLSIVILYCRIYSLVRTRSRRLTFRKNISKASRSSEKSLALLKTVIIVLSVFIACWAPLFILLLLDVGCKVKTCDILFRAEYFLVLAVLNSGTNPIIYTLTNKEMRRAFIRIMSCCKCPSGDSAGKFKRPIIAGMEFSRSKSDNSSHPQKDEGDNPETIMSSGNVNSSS

Row | inhibition at 10 µM (human Edg-1(S1P1) [1]) [%] | inhibition at 10 µM (human Edg-1(S1P1) [2]) [%] | Compound
1 | 60.3 | 96.6 | CCCCS(=O)(=O)N[C@H](C)c1nnc(OC)n1CC [Compound 202]
2 | 47.4 | 99.6 | CCCCOc1ccc(S(=O)(=O)N[C@@H](C)c2nnc(OC)n2CC)cc1 [Compound 205]
3 | 86.2 | 103 | CCn1c(OC)nnc1[C@@H](C)NS(=O)(=O)c1cccc(Br)c1 [Compound 206]
4 | 43.5 | 95.8 | CCCCc1ccc(S(=O)(=O)N[C@H](C)c2nnc(OC)n2CC)cc1 [Compound 207]
5 | 104 | 91.4 | CCn1c(OC)nnc1[C@H](C)NS(=O)(=O)c1ccc(Cl)c([N+](=O)[O-])c1 [Compound 209]
6 | 46.9 | 93.9 | CCn1c(OC)nnc1[C@@H](C)NS(=O)(=O)c1ccc(NC(C)=O)c(Cl)c1 [Compound 211]
7 | 66.1 | 96.2 | CCn1c(OC)nnc1[C@@H](C)NS(=O)(=O)c1cccc(C#N)c1 [Compound 213]
8 | 94.4 | 98.3 | CCn1c(OC)nnc1[C@@H](C)NS(=O)(=O)c1ccc(C)c(Cl)c1 [Compound 215]
9 | 56.1 | 89.9 | CCn1c(OC)nnc1[C@@H](C)NS(=O)(=O)c1ccc(OC)c(OC)c1 [Compound 221]
10 | 71.8 | 92.9 | CCc1ccc(S(=O)(=O)N[C@H](C)c2nnc(OC)n2CC)cc1 [Compound 222]
11 | 70.4 | 95.5 | CCn1c(OC)nnc1[C@@H](C)NS(=O)(=O)c1ccc(F)cc1 [Compound 223]
12 | 42.4 | 92.3 | CCn1c(OC)nnc1[C@@H](C)NS(=O)(=O)c1ccc(OC)cc1 [Compound 226]
13 | 102 | 103 | CCn1c(OC)nnc1[C@@H](C)NS(=O)(=O)c1ccc2ccccc2c1 [Compound 230]
14 | 93.2 | 99.8 | CCn1c(OC)nnc1[C@@H](C)NS(=O)(=O)c1ccc([N+](=O)[O-])cc1 [Compound 233]
15 | 79.1 | 99.1 | CCn1c(OC)nnc1[C@@H](C)NS(=O)(=O)c1ccc(I)cc1 [Compound 238]
16 | 66 | 102 | CCn1c(OC)nnc1[C@@H](C)NS(=O)(=O)c1ccc(C)cc1 [Compound 243]
17 | 61.8 | 98.1 | CCn1c(OC)nnc1[C@@H](C)NS(=O)(=O)c1ccccc1C [Compound 246]
18 | 52 | 95.3 | CCn1c(OC)nnc1[C@@H](C)NS(=O)(=O)c1ccc(OC(F)(F)F)cc1 [Compound 247]
19 | 83.3 | 99.5 | CCn1c(OC)nnc1[C@@H](C)NS(=O)(=O)c1cccc(C)c1 [Compound 248]
20 | 86.3 | 101 | CCn1c(OC)nnc1[C@@H](C)NS(=O)(=O)c1ccc(C(F)(F)F)cc1 [Compound 249]
21 | 56.7 | 94.5 | CCn1c(OC)nnc1[C@@H](C)NS(=O)(=O)c1ccc(-c2ccccc2)cc1 [Compound 261]
22 | 68.8 | 96.5 | CCCc1ccc(S(=O)(=O)N[C@H](C)c2nnc(OC)n2CC)cc1 [Compound 262]
23 | 88.6 | 98.7 | CCn1c(OC)nnc1[C@@H](C)NS(=O)(=O)c1ccc(F)c(Cl)c1 [Compound 268]
24 | 74.5 | 96.3 | CCn1c(OC)nnc1[C@@H](C)NS(=O)(=O)c1cccc(OC)c1 [Compound 269]
25 | 94.3 | 102 | CCn1c(OC)nnc1[C@@H](C)NS(=O)(=O)c1ccc(Br)c(Br)c1 [Compound 272]
26 | 104 | 102 | CCn1c(OC)nnc1[C@@H](C)NS(=O)(=O)c1ccc(Cl)c(Cl)c1 [Compound 274]
27 | 51.4 | 99.7 | CCn1c(OC)nnc1[C@@H](C)NS(=O)(=O)c1ccc(C#N)cc1 [Compound 277]
28 | 48.1 | 92.7 | CCn1c(OC)nnc1[C@@H](C)NS(=O)(=O)c1ccc(C(C)C)cc1 [Compound 282]
29 | 41.5 | 88 | CCCCCc1ccc(S(=O)(=O)N[C@H](C)c2nnc(OC)n2CC)cc1 [Compound 284]

Continued, compound first:

Row | Compound | inhibition at 10 µM (human Edg-1(S1P1) [1]) [%] | inhibition at 10 µM (human Edg-1(S1P1) [2]) [%]
30 | CCn1c(OC)nnc1[C@@H](C)NS(=O)(=O)c1cc(Br)c(Br)s1 [Compound 203] | 88.3 | 97.9
31 | CCn1c(OC)nnc1[C@H](C)NS(=O)(=O)c1ccccc1Br [Compound 204] | 45.4 | 97.8
32 | CCn1c(OC)nnc1[C@@H](C)NS(=O)(=O)c1ccc(Br)s1 [Compound 208] | 93 | 99.9
33 | CCn1c(OC)nnc1[C@@H](C)NS(=O)(=O)CCCCl [Compound 210] | 46.6 | 91.8
34 | CCn1c(OC)nnc1[C@@H](C)NS(=O)(=O)c1ccccc1C#N [Compound 212] | 45.6 | 92.4
35 | CCn1c(OC)nnc1[C@@H](C)NS(=O)(=O)c1sc2ccc(Cl)cc2c1C [Compound 214] | 59.3 | 96.8
36 | CCn1c(OC)nnc1[C@@H](C)NS(=O)(=O)c1cc(Cl)cc(Cl)c1O [Compound 216] | 63.7 | 97.2
37 | CCn1c(OC)nnc1[C@@H](C)NS(=O)(=O)c1cc(Cl)sc1Cl [Compound 217] | 62.3 | 97.4
38 | CCn1c(OC)nnc1[C@@H](C)NS(=O)(=O)c1cccc2c(N(C)C)cccc12 [Compound 218] | 40.2 | 101
39 | CCn1c(OC)nnc1[C@@H](C)NS(=O)(=O)c1cc(Cl)c(Cl)s1 [Compound 220] | 98 | 97.2
40 | CCn1c(OC)nnc1[C@@H](C)NS(=O)(=O)C(C)C [Compound 224] | 54.5 | 92.2
41 | CCn1c(OC)nnc1[C@@H](C)NS(C)(=O)=O [Compound 227] | 52 | 92.6
42 | CCn1c(OC)nnc1[C@@H](C)NS(=O)(=O)c1cccc2ccccc12 [Compound 229] | 61.1 | 102
43 | CCn1c(OC)nnc1[C@@H](C)NS(=O)(=O)c1ccccc1[N+](=O)[O-] [Compound 231] | 40.3 | 96.6
44 | CCn1c(OC)nnc1[C@@H](C)NS(=O)(=O)CCc1cccc2ccccc12 [Compound 235] | 63.8 | 111
45 | CCn1c(OC)nnc1[C@@H](C)NS(=O)(=O)c1c(F)c(F)c(F)c(F)c1F [Compound 237] | 52.5 | 95.4
46 | CCn1c(OC)nnc1[C@@H](C)NS(=O)(=O)c1cccc2cccnc12 [Compound 240] | 70.3 | 93.4

Row | Compound | inhibition at 10 µM (human Edg-1(S1P1) [1]) [%] | inhibition at 10 µM (human Edg-1(S1P1) [2]) [%]
47 | CCn1c(OC)nnc1[C@@H](C)NS(=O)(=O)/C=C/c1ccccc1 [Compound 241] | 80.5 | 102
48 | CCn1c(OC)nnc1[C@@H](C)NS(=O)(=O)c1cccs1 [Compound 242] | 49.9 | 100
49 | CCn1c(OC)nnc1[C@@H](C)NS(=O)(=O)c1cccc(C(F)(F)F)c1 [Compound 245] | 87.7 | 96.8
50 | CCn1c(OC)nnc1[C@@H](C)NS(=O)(=O)c1cc(S(=O)(=O)c2ccccc2)cs1 [Compound 250] | 42.9 | 88.7
51 | CCn1c(OC)nnc1[C@@H](C)NS(=O)(=O)c1cnc(Cl)c(Br)c1 [Compound 251] | 106 | 102
52 | CCn1c(OC)nnc1[C@@H](C)NS(=O)(=O)c1cc(Br)c(Cl)s1 [Compound 252] | 100 | 103
53 | CCn1c(OC)nnc1[C@@H](C)NS(=O)(=O)c1ccsc1C(=O)OC [Compound 255] | 48.3 | 96.3
54 | CCn1c(OC)nnc1[C@@H](C)NS(=O)(=O)c1cc(C(=O)OC)c(C)o1 [Compound 257] | 58.1 | 95.7
55 | CCn1c(OC)nnc1[C@@H](C)NS(=O)(=O)c1ccccc1C(F)(F)F [Compound 260] | 46.9 | 89.4
56 | CCn1c(OC)nnc1[C@@H](C)NS(=O)(=O)c1ccc(C)cc1OC [Compound 264] | 42.7 | 95.8
57 | CCn1c(OC)nnc1[C@@H](C)NS(=O)(=O)c1cc(C(F)(F)F)cc(C(F)(F)F)c1 [Compound 265] | 69.5 | 98.2
58 | CCn1c(OC)nnc1[C@@H](C)NS(=O)(=O)c1cc(Cl)cc(Cl)c1 [Compound 266] | 83 | 97
59 | CCn1c(OC)nnc1[C@@H](C)NS(=O)(=O)c1cccc(Cl)c1C [Compound 267] | 89.4 | 99.9
60 | CCn1c(OC)nnc1[C@@H](C)NS(=O)(=O)c1cc(F)c(Br)cc1F [Compound 270] | 61.3 | 94.8
61 | CCn1c(OC)nnc1[C@@H](C)NS(=O)(=O)c1cc(C)ccc1OC [Compound 273] | 68.4 | 94.3
62 | CCn1c(OC)nnc1[C@@H](C)NS(=O)(=O)c1cccc(OC(F)(F)F)c1 [Compound 275] | 71.9 | 99.4
63 | CCn1c(OC)nnc1[C@@H](C)NS(=O)(=O)c1ccc(F)c(F)c1F [Compound 285] | 63.9 | 97.1
